Among the data in patent US10087178B2, “Substituted spiropyrido[1,2-a]pyrazine derivative and medicinal use thereof as HIV integrase inhibitor” (priority 2012, dated 2018) are EC50 values, retold here.

Where a name gives a salt, the structure may show the parent alone.

One assay has as its system HIV-1 NL4-3 strain. The experiment in a line: Evaluation of antiviral activity: acute infection system of MT-4 cell with HIV-1 NL4-3 strain. The assay is classed as cell-based. Conditions: Human immunodeficiency virus 1, NL43, MT4, 120 h, MT-4 cells infected with HIV-1 NL4-3 strain (MOI 0.05), cultured 5 days, Cell Titer-Glo; read-out: antiviral activity (EC50). In general terms: Cellular ATP, detected with luciferase, serves as a proxy for viable cell number.
With `CN(C)C(=O)[C@H]1C[C@@]12CN(C1CC1)C(=O)c1c(O)c(=O)c(C(=O)NCc3cccc(Cl)c3F)cn12` [Example T32, (1S,2S)-N^7′-(3-chloro-2-fluorobenzyl)-2′-cyclopropyl-9′-hydroxy-N^2,N^2-dimethyl-1′,8′-dioxo-1′,2′,3′,8′-tetrahydrospiro[cyclopropane-1,4′-pyrido[1,2-a]pyrazine]-2,7′-dicarboxamide], the EC50 stood at 3.3 nM.

As to `CO[C@H]1C[C@]2(CN(C)C(=O)c3c(O)c(=O)c(C(=O)NCc4cccc(Cl)c4F)cn32)C1` [Example 23, N-(3-chloro-2-fluorobenzyl)-9′-hydroxy-cis-3-methoxy-2′-methyl-1′,8′-dioxo-1′,2′,3′,8′-tetrahydrospiro[cyclobutane-1,4′-pyrido[, 2-a]pyrazine]-7′-carboxamide], the 50% effective concentration (EC50) came out at 1.6 nM.

For the compound `CCN1C[C@]2(C[C@H](CO)C2)n2cc(C(=O)NCc3cccc(Cl)c3F)c(=O)c(O)c2C1=O` [Example S46, N-(3-chloro-2-fluorobenzyl)-2′-ethyl-9′-hydroxy-cis-3-(hydroxymethyl)-1′,8′-dioxo-1′,2′,3′,8′-tetrahydrospiro[cyclobutane-1,4′-pyrido[1,2-a]pyrazine]-7′-carboxamide hydrochloride], the EC50 amounted to 4.4 nM.

Consider `CCO[C@H]1C[C@@]2(CN(C)C(=O)c3c(O)c(=O)c(C(=O)NCc4cccc(Cl)c4F)cn32)C1` [Example S28, N-(3-chloro-2-fluorobenzyl)- trans-3-ethoxy-9′-hydroxy-2′-methyl-1′,8′-dioxo-1′,2′,3′,8′-tetrahydrospiro[cyclobutane-1,4′-pyrido[1,2-a]pyrazine]-7′-carboxamide hydrochloride], for which the EC50 was determined as 3.6 nM.

Consider `CN1C[C@]2(C[C@@H](CO)C2)n2cc(C(=O)NCc3cccc(Cl)c3F)c(=O)c(O)c2C1=O` [Example S36, N-(3-chloro-2-fluorobenzyl)-9′-hydroxy-trans-3-(hydroxymethyl)-2′-methyl-1′,8′-dioxo-1′,2′,3′,8′-tetrahydrospiro[cyclobutane-1,4′-pyrido[1,2-a]pyrazine]-7′-carboxamide], for which the EC50 was 15 nM.

Consider `COC[C@H]1C[C@]2(CN(C)C(=O)c3c(OC(=O)C(C)C)c(=O)c(C(=O)NCc4cccc(Cl)c4F)cn32)C1` [Example S68, 7′-(3-chloro-2-fluorobenzylcarbamoyl)-cis-3-(methoxymethyl)-2′-methyl-1′,8′-dioxo-1′,2′,3′,8′-tetrahydrospiro[cyclobutane-1,4′-pyrido[1,2-a]pyrazin]-9′-yl isobutyrate], for which the EC50 was found to be 0.7 nM.

Regarding `CCN1C(=O)c2c(O)c(=O)c(C(=O)NCc3cccc(Cl)c3F)cn2C[C@]12C[C@H](COC)C2` [Example S61, N-(3-chloro-2-fluorobenzyl)-2′-ethyl-9′-hydroxy-cis-3-(methoxymethyl)-1′,8′-dioxo-1′,2′,4′,8′-tetrahydrospiro[cyclobutane-1,3′-pyrido[1,2-a]pyrazine]-7′-carboxamide hydrochloride], the EC50 worked out at 5.1 nM.

As to `CN1C[C@]2(C[C@H](CO)C2)n2cc(C(=O)NCc3cccc(Cl)c3F)c(=O)c(O)c2C1=O` [Example S37, N-(3-chloro-2-fluorobenzyl)-9′-hydroxy-cis-3-(hydroxymethyl)-2′-methyl-1′,8′-dioxo-1′,2′,3′,8′-tetrahydrospiro[cyclobutane-1,4′-pyrido[1,2-a]pyrazine]-7′-carboxamide hydrochloride], the EC50 was found to be 3.8 nM.

For `CCN1C(=O)c2c(O)c(=O)c(C(=O)NCc3cccc(Cl)c3F)cn2C[C@]12C[C@@H](COC)C2` [Example S59, N-(3-chloro-2-fluorobenzyl)-2′-ethyl-9′-hydroxy-trans-3-(methoxymethyl)-1′,8′-dioxo-1′,2′,4′,8′-tetrahydrospiro[cyclobutane-1,3′-pyrido[1,2-a]pyrazine]-7′-carboxamide hydrochloride], the EC50 is 4 nM.

As for `CCN1C[C@@]2(C[C@@H]2COC)n2cc(C(=O)NCc3cccc(Cl)c3F)c(=O)c(O)c2C1=O` [Example T19, (1S,2S)-N-(3-chloro-2-fluorobenzyl)-2′-ethyl-9′-hydroxy-2-(methoxymethyl)-1′,8′-dioxo-1′,2′,3′,8′-tetrahydrospiro[cyclopropane-1,4′-pyrido[1,2-a]pyrazine]-7′-carboxamide], the EC50 was 3.8 nM.

Staying with this assay, now noted: Human immunodeficiency virus 1, NL43, MT4, 120 h, antiviral activity; MT-4 cells infected with HIV-1 NL4-3 (MOI 0.05), 5 days culture, Cell Titer-Glo luminescence.
For the compound `CC(C)N1C[C@@]2(C[C@H]2CO)n2cc(C(=O)NCc3ccc(F)cc3F)c(=O)c(O)c2C1=O` [Example 15, (1S,2R)—N-(2,4-difluorobenzyl)-9′-hydroxy-2-(hydroxymethyl)-2′-isopropyl-1′,8′-dioxo-1′,2′,3′,8′-tetrahydrospiro[cyclopropane-1,4′-pyrido[1,2-a]pyrazine]-7′-carboxamide hydrochloride], the EC50 came to 7.2 nM.

Take `CO[C@H]1C[C@@]2(CN(C)C(=O)c3c(O)c(=O)c(C(=O)NCc4cccc(Cl)c4F)cn32)C1` [Example 2, N-(3-chloro-2-fluorobenzyl)-9′-hydroxy-trans-3-methoxy-2′-methyl-1′,8′-dioxo-1′,2′,3′,8′-tetrahydrospiro[cyclobutane-1,4′-pyrido[1,2-a]pyrazine]-7′-carboxamide hydrochloride]: the EC50 was determined as 4.2 nM.

Staying with this assay, now noted: Human immunodeficiency virus 1, NL43, MT4, 120 h, antiviral activity; MT-4 cells infected with HIV-1 NL4-3 (MOI 0.05), 5 days culture, Cell Titer-Glo luminescence; read-out: EC50.
In the case of `CCN1C[C@@]2(C[C@@H]2C(=O)N(C)C)n2cc(C(=O)NCc3ccc(F)cc3F)c(=O)c(O)c2C1=O` [Example 19, (1S,2S)—N^7′-(2,4-difluorobenzyl)-2′-ethyl-9′-hydroxy-N^2,N^2-dimethyl-1′,8′-dioxo-1′,2′,3′,8′-tetrahydrospiro[cyclopropane-1,4′-pyrido[1,2-a]pyrazine]-2,7′-dicarboxamide hydrochloride], the EC50 stood at 4.2 nM.

On to `CC(C)N1C[C@]2(C[C@H](OCc3ccccc3)C2)n2cc(C(=O)NCc3ccc(F)cc3F)c(=O)c(O)c2C1=O` [Example S2, cis-3-(benzyloxy)-N-(2,4-difluorobenzyl)-9′-hydroxy-2′-isopropyl-1′,8′-dioxo-1′,2′,3′,8′-tetrahydrospiro[cyclobutane-1,4′-pyrido[1,2-a]pyrazine]-7′-carboxamide hydrochloride], for which the EC50 was determined as 10 nM.

Consider `CCN1C(=O)c2c(O)c(=O)c(C(=O)NCc3cccc(Cl)c3F)cn2C[C@]12C[C@H]2COC` [Example 18, (1R,2R)—N-(3-chloro-2-fluorobenzyl)-2′-ethyl-9′-hydroxy-2-(methoxymethyl)-1′,8′-dioxo-1′,2′,4′,8′-tetrahydrospiro[cyclopropane-1,3′-pyrido[1,2-a]pyrazine]-7′-carboxamide], for which the EC50 is 2.6 nM.

The assay is the same for the next values; noted with them: Human immunodeficiency virus 1, NL43, MT4, 120 h, read-out: antiviral activity (EC50), MT-4 cells infected with HIV-1 NL4-3 strain (MOI 0.05), cultured 5 days, Cell Titer-Glo.
As to `CCN1C[C@]2(C[C@H]2CO)n2cc(C(=O)NCc3cccc(Cl)c3F)c(=O)c(O)c2C1=O` [Example T17, (1R,2R)-N-(3-chloro-2-fluorobenzyl)-2′-ethyl-9′-hydroxy-2-(hydroxymethyl)-1′,8′-dioxo-1′,2′,3′,8′-tetrahydrospiro[cyclopropane-1,4′-pyrido[1,2-a]pyrazine]-7′-carboxamide hydrochloride], the EC50 worked out at 5.7 nM.

Turning to `COC[C@@H]1C[C@]12CN(C)C(=O)c1c(O)c(=O)c(C(=O)NCc3ccc(OC)c(Cl)c3F)cn12` [Example T36, (1R,2R)-N-(3-chloro-2-fluoro-4-methoxybenzyl)-9′-hydroxy-2-(methoxymethyl)-2′-methyl-1′,8′-dioxo-1′,2′,3′,8′-tetrahydrospiro[cyclopropane-1,4′-pyrido[1,2-a]pyrazine]-7′-carboxamide hydrochloride], the EC50 was 10 nM.

For `CC(C)N1C[C@@]2(C[C@@H]2C(=O)N(C)C)n2cc(C(=O)NCc3cccc(Cl)c3F)c(=O)c(O)c2C1=O` [Example T13, (1S,2S)-N^7′-(3-chloro-2-fluorobenzyl)-9′-hydroxy-2′-isopropyl-N^2,N^2-dimethyl-1′,8′-dioxo-1′,2′,3′,8′-tetrahydrospiro[cyclopropane-1,4′-pyrido[1,2-a]pyrazine]-2,7′-dicarboxamide hydrochloride], the EC50 was 3.4 nM.

Turning to `CCN1C(=O)c2c(O)c(=O)c(C(=O)NCc3cccc(Cl)c3F)cn2C[C@]12C[C@H]2CO` [Example T46, (1R,2R)-N-(3-chloro-2-fluorobenzyl)-2′-ethyl-9′-hydroxy-2-(hydroxymethyl)-1′,8′-dioxo-1′,2′,4′,8′-tetrahydrospiro[cyclopropane-1,3′-pyrido[1,2-a]pyrazine]-7′-carboxamide hydrochloride], the EC50 is 3.4 nM.

Still in this assay, the particulars now being: Human immunodeficiency virus 1, NL43, MT4, 120 h; read-out: antiviral activity (EC50).
For the compound `COC[C@H]1C[C@]2(CN(C)C(=O)c3c(O)c(=O)c(C(=O)NCc4cccc(Cl)c4F)cn32)C1` [Example 29, Monopotassium 7′-(3-chloro-2-fluorobenzylcarbamoyl)-cis-3-(methoxymethyl)-2′-methyl-1′,8′-dioxo-1′,2′,3′,8′-tetrahydrospiro[cyclobutane-1,4′-pyrido[1,2-a]pyrazin]-9′-olate], the EC50 came to 2.5 nM.

With `CN1C[C@]2(C[C@H](C(=O)O)C2)n2cc(C(=O)NCc3cccc(Cl)c3F)c(=O)c(O)c2C1=O` [Example 22, 7′-(3-chloro-2-fluorobenzylcarbamoyl)-9′-hydroxy-2′-methyl-1′,8′-dioxo-1′,2′,3′,8′-tetrahydrospiro[cyclobutane-1,4′-pyrido[1,2-a]pyrazine]-cis-3-carboxylic acid hydrochloride], the EC50 amounted to 400 nM.

Still in this assay, the particulars now being: read-out: EC50.
Consider `CO[C@H]1C[C@]2(CN(C)C(=O)c3c(O)c(=O)c(C(=O)NCc4cccc(Cl)c4F)cn32)C1` [Example 1, N-(3-chloro-2-fluorobenzyl)-9′-hydroxy-cis-3-methoxy-2′-methyl-1′,8′-dioxo-1′,2′,3′,8′-tetrahydrospiro[cyclobutane-1,4′-pyrido[1,2-a]pyrazine]-7′-carboxamide hydrochloride], for which the EC50 amounted to 3.1 nM.

One may read the EC50 as the concentration needed to bring the measured effect to its halfway point.
